“And” between values parts separate entries of the source, which are not always exact repeats. Identical values can stand only once.

The values below come from patent US6878742B2, “Heterocyclic sulfonamide inhibitors of beta amyloid production” (Wyeth, priority 2000, dated 2005).

For the first assay, the system named is amyloid precursor protein (APP) proteolysis. The assay is described as follows: Repressor Release Assay (RRA). The format is cell-based. The conditions noted are these: Conc 10 μg/mL; luciferase activity over diluent control; read-out: APPI Fold Increase. A digest of the protocol: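 This repressor release assay monitors APP proteolysis in mammalian cells. Transfected CHO-K1 cells (pRSVO-luc plus APP-lacI) were seeded at […], treated with compound diluted in 25 mM Hepes, then incubated 36-48 hours. After replacing media with PBS and adding LucLite lysis/substrate buffer, luminescence was measured, and fold increase over diluent control was calculated.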
In the case of `CCCCC(O)[C@@H](NS(=O)(=O)c1cccs1)[C@@H](C)CC` (stereo partly drawn) [Example 143, N-{(S)-2-hydroxy-1-[(S)-1-methylpropyl]hexyl}thiophene-2-sulfonamide], the fold induction at 10 µg/mL is 1.64. The same measure, in the same setting: next, `CC[C@H](C)[C@H](NS(=O)(=O)c1cccs1)C(O)c1ccccc1C` (stereo partly drawn) [Example 144, N-{(S,S)-1-[hydroxy(2-methylphenyl)methyl]-2-methylbutyl}thiophene-2-sulfonamide]: 1.51. On the same count and under the same terms, next, `CC[C@H](C)[C@H](NS(=O)(=O)c1cccs1)C(O)C(C)(C)C` (stereo partly drawn) [Example 145, N-{(S)-2-hydroxy-3,3-dimethyl-1-[(S)-1-methylpropyl]butyl}thiophene-2-sulfonamide]: 1.72. Still for that read-out and setting: next, `C=CC(O)[C@@H](NS(=O)(=O)c1cccs1)[C@@H](C)CC` (stereo partly drawn) [Example 146, N-{(S)-2-hydroxy-1-[(S)-1-methylpropyl]but-3-enyl}thiophene-2-sulfonamide]: 1.83. In the case of `C=CCC(O)[C@@H](NS(=O)(=O)c1cccs1)[C@@H](C)CC` (stereo partly drawn) [Example 147, N-{(S)-2-hydroxy-1-[(S)-1-methylpropyl]pent-4-enyl}thiophene-2-sulfonamide], the fold induction at 10 µg/mL was determined as 2.04. The same measure, in the same setting: next, `CCC(O)[C@@H](NS(=O)(=O)c1cccs1)[C@@H](C)CC` (stereo partly drawn) [Example 148, N-{(S)-2-hydroxy-1-[(S)-1-methylpropyl]butyl}thiophene-2-sulfonamide]: 1.52; `CC[C@H](C)[C@H](NS(=O)(=O)c1cccs1)C(O)c1ccc(OC)cc1` (stereo partly drawn) [Example 149, N-{(S,S)-1-[hydroxy(4-methoxyphenyl)methyl]-2-methylbutyl}thiophene-2-sulfonamide]: 1.62; `CC[C@H](C)[C@H](NS(=O)(=O)c1cccs1)C(O)CCC1OCCCO1` (stereo partly drawn) [Example 150, N-{(S)-4-(1,3-dioxan-2-yl)-2-hydroxy-1-[(S)-1-methylpropyl]butyl}thiophene-2-sulfonamide]: 1.6.

For the compound `C=CCCC(O)[C@@H](NS(=O)(=O)c1cccs1)[C@@H](C)CC` (stereo partly drawn) [Example 151, N-{(S)-2-hydroxy-1-[(S)-1-methylpropyl]hex-5-enyl}thiophene-2-sulfonamide], the fold induction at 10 µg/mL came out at 1.94. Still for that read-out and setting: next, `CC#CC(O)[C@@H](NS(=O)(=O)c1cccs1)[C@@H](C)CC` (stereo partly drawn) [Example 152, N-{(S)-2-hydroxy-1-[(S)-1-methylpropyl]pent-3-ynyl}thiophene-2-sulfonamide]: 1.51. Regarding `CC[C@H](C)[C@H](NS(=O)(=O)c1cccs1)C(O)c1ccc(SC)cc1` (stereo partly drawn) [Example 153, N-((S,S)-1-{hydroxy[4-(methylthio)phenyl]methyl}-2-methylbutyl)thiophene-2-sulfonamide], the fold induction at 10 µg/mL turned out to be 2.09.

For the compound `CC[C@H](C)[C@H](NS(=O)(=O)c1cccs1)C(O)c1ccc(N(C)C)cc1` (stereo partly drawn) [Example 154, N-{(S,S)-1-[[4-(dimethylamino)phenyl](hydroxy)methyl]-2-methylbutyl}thiophene-2-sulfonamide], the fold induction at 10 µg/mL turned out to be 4.23. On the same count and under the same terms, next, `CC[C@H](C)[C@H](NS(=O)(=O)c1ccc(Cl)s1)C(C)(C)O` [Example 162, 5-Chloro-N-[(S,S)-1-(1-hydroxy-1-methylethyl)-2-methylbutyl]thiophene-2-sulfonamide]: 2.6; `CCCCCC(O)(CCCCC)[C@@H](NS(=O)(=O)c1ccc(Cl)s1)[C@@H](C)CC` [Example 163, 5-chloro-N-{(S)-2-hydroxy-1-[(S)-1-methylpropyl]-2-pentylheptyl}thiophene-2-sulfonamide]: 3.3.

`CC[C@H](C)[C@H](NS(=O)(=O)c1ccc(Cl)s1)C(O)(c1ccccc1)c1ccccc1` [Example 164, 5-chloro-N-{(S,S)-1-[hydroxy(diphenyl)methyl]-2-methylbutyl}thiophene-2-sulfonamide]: the fold induction at 10 µg/mL is 1.72. Still for that read-out and setting: then `C=CCC(O)(CC=C)[C@@H](NS(=O)(=O)c1ccc(Cl)s1)[C@@H](C)CC` [Example 165, N-{(S)-2-allyl-2-hydroxy-1-[(S)-1-methylpropyl]pent-4-enyl}-5-chlorothiophene-2-sulfonamide], with 1.73; and `CC[C@H](C)[C@H](NS(=O)(=O)c1ccc(Cl)s1)C(O)(CC)CC` [Example 166, 5-chloro-N-{(S)-2-ethyl-2-hydroxy-1-[(S)-1-methylpropyl]butyl}thiophene-2-sulfonamide], with 1.78; and `CC[C@H](C)[C@H](NS(=O)(=O)c1ccc(Cl)s1)C(O)(c1ccc(Cl)cc1)c1ccc(Cl)cc1` [Example 167, N-{(S,S)-1-[bis(4-chlorophenyl)(hydroxy)methyl]-2-methylbutyl}-5-chlorothiophene-2-sulfonamide], with 3.42. For `CC[C@H](C)[C@H](NS(=O)(=O)c1ccc(Cl)s1)C(O)(c1ccc(OC)cc1)c1ccc(OC)cc1` [Example 169, 5-chloro-N-((S,S)-1-{hydroxy[bis(4-methoxyphenyl)]methyl}-2-methylbutyl)thiophene-2-sulfonamide], the fold induction at 10 µg/mL is 1.51. Still for that read-out and setting: then `C/C=C(\C)C(O)(/C(C)=C/C)[C@@H](NS(=O)(=O)c1ccc(Cl)s1)[C@@H](C)CC` (stereo partly drawn) [Example 170, 5-chloro-N-{(S,E)-2-hydroxy-3-methyl-2-[(E)-1-methylprop-1-enyl]-1-[(S)-1-methylpropyl]pent-3-enyl}thiophene-2-sulfonamide], with 1.95; and `C=CCCC(O)(CCC=C)[C@@H](NS(=O)(=O)c1ccc(Cl)s1)[C@@H](C)CC` [Example 171, N-{(S)-2-but-3-enyl-2-hydroxy-1-[(S)-1-methylpropyl]hex-5-enyl}-5-chlorothiophene-2-sulfonamide], with 5.32; and `CC[C@H](C)[C@H](NS(=O)(=O)c1ccc(Cl)s1)C(O)(c1cccc2ccccc12)c1cccc2ccccc12` [Example 172, 5-chloro-N-((S,S)-1-{hydroxy[di(1-naphthyl)]methyl}-2-methylbutyl)thiophene-2-sulfonamide], with 2. Still for that read-out and setting: then `CC[C@H](C)[C@H](NS(=O)(=O)c1ccc(Br)s1)C(O)(CC)CC` [Example 173, 5-bromo-N-{(S)-2-ethyl-2-hydroxy-1-[(S)-1-methylpropyl]butyl}thiophene-2-sulfonamide], with 1.5; and `C=C(C)C(O)(C(=C)C)[C@@H](NS(=O)(=O)c1ccc(Br)s1)[C@@H](C)CC` [Example 174, 5-bromo-N-{(S)-2-hydroxy-2-isopropenyl-3-methyl-1-[(S)-1-methylpropyl]but-3-enyl}thiophene-2-sulfonamide], with 1.75; and `C=CCCC(O)(CCC=C)[C@@H](NS(=O)(=O)c1ccc(Br)s1)[C@@H](C)CC` [Example 176, 5-bromo-N-{(S)-2-but-3-enyl-2-hydroxy-1-[(S)-1-methylpropyl]hex-5-enyl}thiophene-2-sulfonamide], with 1.52.

Staying with this assay, now noted: Conc 20 μg/mL; luciferase activity over diluent control.
Regarding `O=S(=O)(NC1(CO)CCc2ccccc21)c1ccc(Cl)s1` (stereo not shown) [Example 179], the “APPI Fold Increase” value is on record as 8.3 fold.

As to `O=S(=O)(NC1(CO)Cc2ccccc2C1)c1ccc(Cl)s1` [Example 180], the “APPI Fold Increase” value was found to be 2.3 fold. As for `O=S(=O)(NC1(CO)Cc2ccccc2C1)c1ccc(Br)s1` [Example 183], the “APPI Fold Increase” value was determined as 3.7 fold.

As for `CCC[C@@H](O)[C@@H](NS(=O)(=O)c1ccc(Cl)s1)[C@@H](C)CC` [Example 187, 5-chloro-N-{(S,R)-2-hydroxy-1-[(S)-1-methylpropyl]pentyl}thiophene-2-sulfonamide], the “APPI Fold Increase” value is 5.7 fold and 3 fold. Same read-out and setting: then `CCC[C@H](O)[C@@H](NS(=O)(=O)c1ccc(Br)s1)[C@@H](C)CC` [Example 192, 5-bromo-N-{(S,S)-2-hydroxy-1-[(S)-1-methylpropyl]pentyl}thiophene-2-sulfonamide], with 2.2 fold and 1.9 fold and 1.7 fold.

Still in this assay, the particulars now being: Conc 20 μg/mL; luciferase activity over diluent control; read-out: APPI Fold Increase.
For `CC[C@H](C)[C@H](NS(=O)(=O)c1ccc(Cl)s1)[C@@H](O)C1C=CCCC1` (stereo partly drawn) [Example 155, 5-Chloro-N-{(S,S)-1-[(S)-cyclohex-2-en-1-yl(hydroxy)methyl]-2-methylbutyl}thiophene-2-sulfonamide], the fold induction at 20 µg/mL was 4.2. The same measure, in the same setting: then `CC[C@H](C)[C@H](NS(=O)(=O)c1ccc(Cl)s1)C(O)C/C=C/c1ccccc1` (stereo partly drawn) [Example 161, 5-chloro-N-{(S,E)-2-hydroxy-1-[(S)-1-methylpropyl]-5-phenylpent-4-enyl}thiophene-2-sulfonamide], with 2.6; and `O=S(=O)(NC1(CO)CCCCC1)c1ccc(Cl)s1` [Example 177, 5-Chloro-N-[1-(hydroxymethyl)cyclohexyl]thiophene-2-sulfonamide], with 5.1. The same measure, in the same setting: then `O=S(=O)(NC1(CO)CC2CCC1C2)c1ccc(Cl)s1` (stereo not shown) [Example 178, 5-chloro-N-[2-(hydroxymethyl)bicyclo[2.2.1]hept-2-yl]thiophene-2-sulfonamide], with 2.3; and `O=S(=O)(NC1(CO)CCCCC1)c1ccc(Br)s1` [Example 181, 5-bromo-N-[1-(hydroxymethyl)cyclohexyl]thiophene-2-sulfonamide], with 2.6; and `O=S(=O)(NC1(CO)CC2CCC1C2)c1ccc(Br)s1` (stereo not shown) [Example 182, 5-bromo-N-[2-(hydroxymethyl)bicyclo[2.2.1]hept-2-yl]thiophene-2-sulfonamide], with 4.2. Consider `CC[C@H](C)[C@H](NS(=O)(=O)c1ccc(Cl)s1)C(O)C(F)(F)F` (stereo partly drawn) [Example 196, 5-Chloro-N-[(S,S)-2-methyl-1-(2,2,2-trifluoro-1-hydroxyethyl)butyl]thiophene-2-sulfonamide], for which the fold induction at 20 µg/mL turned out to be 20.7.
